In brackets after ≈: the same amount, converted by molar mass. Where two headings read alike, the source gives them in different places.

Results on three compounds are retold here after patent publication US7655695B2, “Illudin analogs useful as anticancer agents” (The Regents of The University of California, priority 2005, dated 2010).

For data set [1], the system named is OVCAR-3 ovarian carcinoma. Nature of the data set: MTS viability assay, 1 hour exposure, OVCAR-3. The format is cell-based. The note with it: Homo sapiens, OVCAR-3, 1 hour exposure. Here is the method:
(§1) Using four different cell lines, HT29 colon, OVCAR-3 ovarian, AsPC-1 pancreatic, and PC-3 prostate carcinoma, the IC50 values of compound 6 and irofulven were established for one hour incubations using the MTS viability assay (Buttke T. M. et al., J Immunol Methods. 1993, 157, 233).

For data set [2], the system named is subcutaneous MV522 tumors. Nature of the data set: MV522 mouse xenograft model. The class given is in vivo. Particulars: 3/wk for 21 d; for PR (Partial Response): mice with partial response/mice. Here is the method:
The MV522 xenograft model was used to test the in vivo activity of compounds 6 and 7 as previously described (Kelner M. J. et al., Invest New Drugs. 1996, 14, 161). Mice bearing subcutaneous MV522 tumors were dosed intraperitoneally three times a week for three weeks (3/wk for 21 d) at 10 mg/kg of irofulven, doses ranging from 7.5 to 10 mg/kg for compound 6, or 5 to 15 mg/kg for compound 7 (FIGS. 1 and 2 and Table 3). Compound 6 had potent anti-tumor activity against MV522 tumors, producing 4/6 and 5/5 partial responses in mice treated with 7.5 and 10 mg/kg doses, respectively.
The MV522 xenograft model was used to test the in vivo activity of Compound 6 administration on a weekly schedule. Nude mice bearing subcutaneous MV522 tumors were dosed intraperitoneally (IP) 1/wk for 14 d at 17.5 mg/kg Compound 6 vs 7.5 mg/kg Compound 6 or 10 mg/kg irofulven on the intermittent schedule (3/wk for 21 d). The comparator dosages were the previously-determined efficacious MTDs for the 3/wk for 21 d schedule (FIG. 5).

The subject of data set [3] is AsPC-1 pancreatic carcinoma. In words: MTS viability assay, 1 hour exposure, AsPC-1. The format is cell-based. The procedure:
as §1

Data set [4] can be described thus: Plasma stability in pooled fresh human plasma at 37° C., LC/MS/MS. The format is in vitro ADME. From the text: Compounds 6 and 7 were compared against irofulven for their respective plasma stability (e.g., the enhanced stability or in vivo terminal phase elimination half life (T½) of a compound in plasma; it is believed that the greater the stability and T½ the more likely it is that the compound will be incorporated into or have an effect on a cancerous cell, such as cells of a tumor or a hematologic cancerous cell). Pooled fresh human plasma was spiked with each analog, and the compound stability profile was measured at 37° C. using LC/MS/MS. […] These properties differentiate Compounds 6 and 7 from irofulven and may have enhanced therapeutic potential. The increased plasma stability of Compound 6 may be particularly advantageous in drug formulation and delivery as it relates to increased exposure of the tumor to the drug. Thus, compound 6 has increased stability in human plasma in vitro (FIG. 3).

For another data set, the system named is PC-3 prostate carcinoma. Nature of the data set: MTS viability assay, 1 hour exposure, PC-3. The class given is cell-based. Particulars: PC-3, 1 hour exposure. The procedure: as §1
The nature of data set [5]: Pharmacokinetics after single intravenous administration in male CD-1 mice. The class given is in vivo, mouse. The note with it: for clearance: read-out: CLp (converted); for Vd: read-out: Vdss. Here is the method: The pharmacokinetics (PK) of Compound 6 was investigated in the CD-1 male mouse. A single intravenous administration of 5 mg/kg was followed by sequential blood collections and analysis of plasma by LC/MS/MS.

Another data set relates to HT29 colon carcinoma. Nature of the data set: MTS viability assay, 1 hour exposure, HT29. The class given is cell-based. The note with it: Homo sapiens, HT-29, HT29, 1 hour exposure. The procedure:
as §1

Data set [6] can be described thus: Maximum tolerated dose on the 3/wk for 21 d schedule. Particulars: nude, mouse, in vivo, IP, read-out: previously-determined efficacious MTD. The procedure: A novel dosing schedule for acyfulvene analogs is described herein. This dosing schedule requires less frequent administration of individual dosages exceeding the previously-determined maximum tolerated dose (MTD) for each dose on an intermittent schedule of 3/wk for 21 d. For example, compound 6 was tested on a dosing schedule of 1/wk for 14 d. On this schedule, the total cumulative dose was less than the total cumulative dose administered on the 3/wk for 21 d-schedule, but with equal efficacy (FIG. 5). The 3/wk for 21 d dosing schedule is a standard method of administration for irofulven. The 1/wk for […] schedule for Compound 6 disclosed herein was unexpected based on prior work and presents a unique opportunity to administer less total dose of a cytotoxic chemotherapeutic less frequently and thereby reduce the overall toxic effect on the patient. This represents an increase in human safety and compliance, as a weekly dosing schedule is easier to follow than a more frequent dosing schedule.
The MV522 xenograft model was used to test the in vivo activity of Compound 6 administration on a weekly schedule. […] The comparator dosages were the previously-determined efficacious MTDs for the 3/wk for 21 d schedule (FIG. 5).

A further data set deals with MV522 lung cancer cells. Nature of the data set: Thymidine incorporation into cellular DNA, 2 hour exposure, MV522 tumor cell line. The class given is cell-based. The note with it: MV522, 2 hour exposure. From the text:
The anti-cancer activities of compounds 6, 7, 14, 16, 18, 20, 21 and 22 were compared to that of irofulven, 3, using MV522 lung cancer cells in vitro (See Kelner M. J. et al., Cancer Res. 1987, 47, 3186).

Setting [7] is: Homo sapiens, ASPC1, AsPC-1, 1 hour exposure, read-out: GI50.
[8] abbreviates: mouse, plasma, 5 mg/kg single IV.
[9] abbreviates: mouse, plasma, 5 mg/kg IV, concentrations extrapolated from a 12.9 mg/kg IV dose.

`CC1=C(CN(O)C(N)=O)C2=C(C)C3(CC3)[C@@](C)(O)C(=O)C2=C1` [Compound 6, N-hydroxy-N-(methylacylfulvene)urea] had a GI50 in data set [1] of 0.6 µg/mL (≈ 1.97 µM). For the same compound, in data set [2] (7.5 mg/kg i.p.), the “% Tumor Growth Inhibition” value came out at 100%, the “Relative Mean Tumor Weight (Wt/Wi)” value is given as 0.9 and the “PR (Partial Response)” value is given as 4/6. Besides, in data set [2] (10 mg/kg i.p.), the “% Tumor Growth Inhibition” value is given as 100%, the “Relative Mean Tumor Weight (Wt/Wi)” value turned out to be 0.3 and the “PR (Partial Response)” value is 5/5. Besides, the GI50 entry in [3] (AsPC-1, 1 hour exposure) is on record as “greater potency”. The GI50 in [3] (setting [7]) stood at 16 µg/mL (≈ 52.6 µM). For the same compound, in [4], the “stability in human plasma compared with irofulven” value is “more stable”. The same compound had a GI50 in the data set on PC-3 prostate carcinoma of 0.41 µg/mL (≈ 1.35 µM). Further, in data set [5] (5 mg/kg single IV), the “AUC(0-t)” value is listed as “greater”, the CLp result is “reduced”, the Cmax entry was “greater” and the T1/2 result is reported as “significantly longer”. In [5] (5 mg/kg single IV), the Vdss result is on record as “reduced”. In data set [5] (setting [8]), the AUC(0-inf) was found to be 2200 ng·h/mL, the half-life is 142 min, the clearance is 37.8 mL/min/kg and the Vd was found to be 0.548 L/kg. Moreover, in [5] (mouse, plasma, 5 mg/kg single IV, read-out: AUC (0-t)), the AUC(0-t) turned out to be 2200 ng·h/mL. Further, the Cmax in data set [5] (mouse, plasma, 5 mg/kg single IV, read-out: Cmax) was determined as 9730 ng/mL. Also, in the data set on HT29 colon carcinoma, halving of growth (GI50) required 0.68 µg/mL (≈ 2.23 µM). The MTD at 21 d in data set [6] is 7.5 mg/kg.
On to `CC(=O)ON(CC1=C(C)C=C2C(=O)[C@](C)(O)C3(CC3)C(C)=C21)C(N)=O` [Compound 7, N-Acetoxy-N-(methylacylfulvene)urea], for which the “% Tumor Growth Inhibition” value in data set [2] (5 mg/kg i.p.) was 56%; in data set [2] (5 mg/kg i.p., listed as compound 7), 56%; in [2] (10 mg/kg i.p.) it was 79%; in data set [2] (10 mg/kg i.p., listed as compound 7), 79%; in data set [2] (15 mg/kg i.p.), 100%. The “Relative Mean Tumor Weight (Wt/Wi)” value was 4.5 in data set [2] (5 mg/kg i.p.), 2.2 in [2] (10 mg/kg i.p.) and 0.7 in data set [2] (15 mg/kg i.p.). In data set [2] (15 mg/kg i.p.), the “PR (Partial Response)” value was 4/6. Also, the “stability in human plasma compared with irofulven” value in [4] was “less stable”.
In data set [1], `CC1=C(CO)C2=C(C)C3(CC3)[C@@](C)(O)C(=O)C2=C1` [Irofulven, 6-hydroxymethylacylfulvene, reference compound] had a GI50 of 0.15 µg/mL (≈ 0.609 µM). For the same compound, in data set [2] (10 mg/kg i.p.), the “% Tumor Growth Inhibition” value was found to be 100%, the “Relative Mean Tumor Weight (Wt/Wi)” value is 0.8 and the “PR (Partial Response)” value is recorded as 6/7. Moreover, the GI50 in [3] (setting [7]) is above 100 µg/mL. This compound yielded an IC50 in the data set with MV522 lung cancer cells of 1200 ± 100 nM. For the same compound, the GI50 with PC-3 prostate carcinoma worked out at 0.58 µg/mL (≈ 2.35 µM). Also, in [5] (setting [9]), the AUC(0-inf) was 695 ng·h/mL, the half-life was 5.93 min, the clearance is 120 mL/min/kg and the Vd is 0.948 L/kg. The AUC(0-t) in data set [5] (mouse, plasma, 5 mg/kg IV, concentrations extrapolated from a 12.9 mg/kg IV dose, read-out: AUC (0-t)) was 691 ng·h/mL. In addition, the Cmax in [5] (mouse, plasma, 5 mg/kg IV, concentrations extrapolated from a 12.9 mg/kg IV dose, read-out: Cmax) was 5650 ng/mL. In addition, growth in the data set with HT29 colon carcinoma was halved (GI50) at 1.4 µg/mL (≈ 5.68 µM). Further, the MTD at 21 d in data set [6] was 10 mg/kg.
